Test results as given in patent US20250243176A1, “(S)-1-(1-ACRYLOYLPIPERIDIN-3-YL)-2-FLUORO-5,6,7,8,9,10-HEXAHYDROCYCLO HEPTA[B]INDOLE-4-CARBOXAMIDE, AND RELATED CRYSTALLINE FORMS, COMPOSITIONS, AND METHODS THEREOF” (GB005, Inc., priority 2021, published 2025).
Like-named read-outs stand apart in the source and are kept apart here.

How the values were obtained:
[1] = tested on: 349 kinases; test: Kinome scan, panel; type: biochemical; details: kinome scan against 349 kinases
From the text: (S)-1-(1-acryloylpiperidin-3-yl)-2-fluoro-5,6,7,8,9,10-hexahydrocyclohepta[b]indole-4-carboxamide, hereinafter referred to as “Compound 1”, is an orally available, selective, potent inhibitor of Bruton's tyrosine kinase (BTK), thereby providing potential treatment options in BTK-driven diseases. The potency of Compound 1 for BTK inhibition is in the nM range in both cell-free enzymatic and whole blood functional assays.

[2] = tested on: CYP3A; test: Phase 1 drug-drug interaction with itraconazole (strong CYP3A inhibitor); type: in vivo, human; details: for AUC(0-inf) / Cmax / T1/2 / Tmax: Cohort 12, 2 mg single dose; for AUC(0-inf) / Cmax: mean; for T1/2 / Tmax: median
Experimental: Cohort 12 is an open-label, fixed-sequence, multiple-dose DDI study with itraconazole (ITZ). Subjects receive a single oral dose of Compound 1 administered in the fasted state on Day 1. Beginning on Day 3 and continuing through to Day 6, subjects receive itraconazole 200 mg once daily (QD) in a fasted state. On Day 5, subjects receive Compound 1 administered in the fasted state, 1 hour after administration of itraconazole.
Results. Preliminary pharmacokinetic results evaluating the drug-drug interaction effect of a strong CYP3A inhibitor (itraconazole) on Compound 1 PK are presented, including 9 subjects from Cohort 12 receiving single doses of 2 mg Compound 1 under fasting conditions alone or in combination with once daily itraconazole 200 mg. Preliminary PK parameters are presented in Table 49 (all pharmacokinetic parameters of Table 49 are reported as Mean (% coefficient of variation), except for Tmax and t1/2, which are reported as Median (Min, Max)), and in FIG. 29 presenting the mean (SD) plasma concentration-time profiles of Compound 1.

[3] = Stability testing of formulations and Compound 1 alone (impurities, HPLC); type: physicochemical; details: 40° C.
Experimental: Both gels were prepared using Titanium Dioxide, Iron Oxide, Red and FD&C Blue #1 as colorants. One dried swatch of gel 004007 was added to the gel 1 samples and one dried swatch of 004013 was added to gel 2.
The samples were stored in 6 mL amber glass vials at: room temperature, 40° C., 50° C. and 5° C. for up 8 weeks. Control samples (Compound 1 alone) were analyzed in parallel with the study samples and control peaks were subtracted from the total impurities.

[4] = Phase 1 food effect on pharmacokinetics; type: in vivo, human; details: for Tmax / half-life / AUC(0-inf) / Cmax: human, plasma, oral; for AUC(0-inf) / Cmax: mean
From the text: Cohort 11 is a randomized, 2-treatment, 2-period, 2-sequence, single-dose level food effect evaluation. The formulation used in Cohort 11 is Formulation A. In Treatment Sequence FH, subjects receive Compound 1 in the fasted state on Day 1, and a second dose in the fed state (high-fat, high-calorie meal) on Day 8. In Treatment Sequence HF, subjects receive Compound 1 in the fed state (high-fat, high-calorie meal) on Day 1 and a second dose in the fasted state on Day 8. Days 2-7 are washout days.
Results: Preliminary pharmacokinetic results evaluating the effect of food on Compound 1 PK are presented, including 12 subjects from Cohort 11, […] 15 mg under fasting conditions, or in a fed state (with a moderate-fat meal or with a high-fat high-calorie meal). Preliminary PK parameters are presented in Table 48 (all pharmacokinetic parameters of […] are reported as Mean (% coefficient of variation), except for Tmax and t/2, which are reported as Median (Min, Max)), and in FIG. 28.

[5] = 2 mg Compound 1, itraconazole 200 mg once daily, fasting
[6] = fasted, Day 5 (+ITZ 200 mg once daily)
[7] = single 2 mg dose, fasting, alone or with itraconazole 200 mg once daily
[8] = 15 mg, Cohort 11, 15 mg single dose, Fasted
[9] = 15 mg, Cohort 11, 15 mg single dose, High-Fat
[10] = 15 mg, Cohorts 2 and 7, 15 mg single dose, Moderate-Fat

kinase selectivity [1]: high kinase selectivity
increase of AUCinf on coadministration of itraconazole [2, 5]: 15%
increase of Cmax on coadministration of itraconazole [2, 5]: 23%
AUC(0-inf) ([2]; fasted, Day 1 (Alone)): 46.7 ng·h/mL
Cmax ([2]; fasted, Day 1 (Alone)): 21.2 ng/mL
T1/2 ([2]; fasted, Day 1 (Alone)): 3.13 h
Tmax ([2]; fasted, Day 1 (Alone)): 1.0 h
AUC(0-inf) [2, 6]: 54.4 ng·h/mL
Cmax [2, 6]: 26.3 ng/mL
T1/2 [2, 6]: 3.14 h
Tmax [2, 6]: 1.5 h
AUC0-inf, % GMR ITZ/Alone ([2]; Cohort 12, 2 mg, fasted): 115%
Cmax, % GMR ITZ/Alone ([2]; Cohort 12, 2 mg, fasted): 123%
effect of a strong CYP3A inhibitor on PK ([2]; coadministration of itraconazole): no clinically significant effect
mean plasma Tmax [2, 7]: 1.0 to 1.5 h
terminal half-life [2, 7]: approximately 3 hours
Compound 1 Related Impurities, RRT 0.73 ([3]; T = 0): 0.05 % adjusted area
Compound 1 Related Impurities, RRT 0.79 ([3]; T = 0): <LOQ
Compound 1 Related Impurities, RRT 0.84 ([3]; T = 0): 0.07 % adjusted area
Compound 1 Related Impurities, RRT 0.91 ([3]; T = 0): 0.10 % adjusted area
Compound 1 Related Impurities, RRT 0.93 ([3]; T = 0): 0.06 % adjusted area
Compound 1 Related Impurities, RRT 1.08 ([3]; T = 0): 0.07 % adjusted area
Compound 1 Related Impurities, RRT 1.13 ([3]; T = 0): 0.36 % adjusted area
Compound 1 Related Impurities, Total ([3]; T = 0): 0.71 % adjusted area
Compound 1 Related Impurities, RRT 0.73 ([3]; T = 3 weeks): 0.06 % adjusted area
Compound 1 Related Impurities, RRT 0.79 ([3]; T = 3 weeks): <LOQ
Compound 1 Related Impurities, RRT 0.84 ([3]; T = 3 weeks): 0.05 % adjusted area
Compound 1 Related Impurities, RRT 0.91 ([3]; T = 3 weeks): 0.07 % adjusted area
Compound 1 Related Impurities, RRT 0.93 ([3]; T = 3 weeks): 0.07 % adjusted area
Compound 1 Related Impurities, RRT 1.08 ([3]; T = 3 weeks): 0.07 % adjusted area
Compound 1 Related Impurities, RRT 1.13 ([3]; T = 3 weeks): 0.30 % adjusted area
Compound 1 Related Impurities, Total ([3]; T = 3 weeks): 0.62 % adjusted area
Compound 1 Related Impurities, RRT 0.47 ([3]; T = 8 weeks): 0.07 % adjusted area
Compound 1 Related Impurities, RRT 0.73 ([3]; T = 8 weeks): 0.05 % adjusted area
Compound 1 Related Impurities, RRT 0.79 ([3]; T = 8 weeks): <LOQ
Compound 1 Related Impurities, RRT 0.84 ([3]; T = 8 weeks): 0.06 % adjusted area
Compound 1 Related Impurities, RRT 0.91 ([3]; T = 8 weeks): 0.08 % adjusted area
Compound 1 Related Impurities, RRT 0.93 ([3]; T = 8 weeks): 0.05 % adjusted area
Compound 1 Related Impurities, RRT 1.04 ([3]; T = 8 weeks): 0.12 % adjusted area
Compound 1 Related Impurities, RRT 1.08 ([3]; T = 8 weeks): 0.06 % adjusted area
Compound 1 Related Impurities, RRT 1.13 ([3]; T = 8 weeks): 0.32 % adjusted area
Compound 1 Related Impurities, Total ([3]; T = 8 weeks): 0.81 % adjusted area
AUC0-inf, High-Fat/Fasted % GMR - paired ([4]; 15 mg single dose): 120.3%
AUC0-inf, Moderate-Fat/Fasted % GMR - unpaired ([4]; 15 mg single dose): 107.9%
Cmax, High-Fat/Fasted % GMR - paired ([4]; 15 mg single dose): 68.0%
Cmax, Moderate-Fat/Fasted % GMR - unpaired ([4]; 15 mg single dose): 74.1%
Tmax ([4]; both sexes, 15 mg, single 15 mg dose, fasting, moderate-fat meal or high-fat high-calorie meal, read-out: mean plasma Tmax): 1 to 2.5 h
half-life ([4]; both sexes, 15 mg, single 15 mg dose, fasting, moderate-fat meal or high-fat high-calorie meal, read-out: terminal half-life (converted)): ~180 min
AUC(0-inf) [4, 8]: 312 ng·h/mL
Cmax [4, 8]: 137 ng/mL
half-life ([4]; 15 mg, Cohort 11, 15 mg single dose, Fasted, median, read-out: T1/2 (converted)): 173 min
Tmax ([4]; 15 mg, Cohort 11, 15 mg single dose, Fasted, median, read-out: Tmax): 1 h
AUC(0-inf) [4, 9]: 356 ng·h/mL
Cmax [4, 9]: 85.5 ng/mL
half-life ([4]; 15 mg, Cohort 11, 15 mg single dose, High-Fat, median, read-out: T1/2 (converted)): 179 min
Tmax ([4]; 15 mg, Cohort 11, 15 mg single dose, High-Fat, median, read-out: Tmax): 2.5 h
AUC(0-inf) [4, 10]: 322 ng·h/mL
Cmax [4, 10]: 101 ng/mL
half-life ([4]; 15 mg, Cohorts 2 and 7, 15 mg single dose, Moderate-Fat, median, read-out: T1/2 (converted)): 174 min
Tmax ([4]; 15 mg, Cohorts 2 and 7, 15 mg single dose, Moderate-Fat, median, read-out: Tmax): 1.5 h
effect of food on PK ([4]; moderate fat, or high-fat high calorie meal, 15 mg): no clinically significant effect
SMILES: C=CC(=O)N1CCC[C@@H](c2c(F)cc(C(N)=O)c3[nH]c4c(c23)CCCCC4)C1 [Compound 1, (S)-1-(1-acryloylpiperidin-3-yl)-2-fluoro-5,6,7,8,9,10-hexahydrocyclohepta[b]indole-4-carboxamide]
